Assays:
[1] = tested on: oncogenic Ras-transformed cells; experiment: Proliferation in low glutamine with physiological albumin; assay type: cell-based; conditions: 0.2 mM glutamine, rescued by increased glutamine or α-ketoglutarate
[2] = tested on: oncogenic Ras^V12-expressing HeLa cells; experiment: FITC-BSA internalization; assay type: cell-based, human
Experimental: (§1) When added to the growth medium, fluorescently-labeled bovine serum albumin (FITC-BSA) was incorporated into vesicular compartments in oncogenic Ras^V12-expressing HeLa cells (FIG. 6A), MIA-Paca-2, and T24 cells. […] Quantification of FITC-BSA uptake was performed utilizing an amended form of the high-throughput protocol described herein (FIG. 6B). Using colocalization experiments, it was observed that FITC-BSA is internalized with a macropinocytosis marker, dextran (FIG. 7A-7C). To be utilized as a nutrient source, the protein contents of Ras-stimulated macropinosomes must be delivered to a degradative compartment, such as the lysosome. The fate of the macropinosomes was followed via pulse chase experiments and their fusion with lysosomes was monitored by co-staining with lysosomal markers (i.e. Lysotracker). Cells were pulsed with TMR-dextran and incubated with TMR-dextran-free media for varying intervals. At the end of the incubation period, cells were stained with a lysosomal marker and visualized by fluorescent microscopy.

MIA-Paca-2 cells [3] = experiment: FITC-BSA internalization; assay type: cell-based, human
Experimental: as §1

MIA-Paca-2 cells [4] = experiment: TMR-dextran labeling of macropinosomes; assay type: cell-based, human; conditions: MIA-Paca-2, oncogenic K-Ras^G12C
Experimental: (§2) It was postulated that cancer cells harboring oncogenic Ras mutations would display higher levels of macropinocytosis compared to cancer cells having a non-mutant Ras. For pancreatic cancer cells, macropinocytosis was analyzed in MIA-Paca-2 cells, which are homozygous for the oncogenic K-Ras^G12C allele (Lopez-Crapez et al., “Rapid and Large-Scale Method to Detect K-Ras Gene Mutations in Tumor Samples,” Clin. Chem. 43(6 Pt 1):936-42 (1997) and Pretlow et al., “K-Ras Mutations in Putative Preneoplastic Lesions in Human Colon,” J. Natl. Cancer Inst. 85(24):2004-7 (1993), which are hereby incorporated by reference in their entirety) and BxPc-3 cells that only express wild-type K-Ras (Aoki et al., “Liposome-Mediated in vivo Gene Transfer of Antisense K-Ras Construct Inhibits Pancreatic Tumor Dissemination in the Murine Peritoneal Cavity,” Cancer Res. 55(17):3810-6 (1995), which is hereby incorporated by reference in its entirety). As a bladder model, uptake in T24 and 5637 cells was analyzed. T24 cells are homozygous for the oncogenic H-Ras^V12C allele and 5637 cells only express wild-type H-Ras. […]

[5] = tested on: oncogenic Ras^V12-expressing HeLa cells; experiment: Survival under glutamine starvation with extracellular albumin; assay type: cell-based, human; conditions: glutamine-free media, low BSA or 2% BSA
Experimental: If albumin internalization via Ras-stimulated macropinocytosis serves to augment the glutamine supply, then this process should confer a survival and growth advantage under conditions where free glutamine is limiting. To test this prediction, the survival of oncogenic Ras^V12-expressing HeLa cells was tested. […] It was hypothesized that this was due to albumin-derived amino acids that were augmenting the intracellular glutamine supply. It was determined that Ras^V12-survival was enhanced at higher concentrations of extracellular albumin (up to 2%; FIG. 13) and that this survival enhancement was suppressed by EIPA, a macropinocytosis inhibitor (FIGS. 14A-14B).

T24 cells [6] = experiment: TMR-dextran labeling of macropinosomes; assay type: cell-based; conditions: T24, oncogenic H-Ras
Experimental: as §2

[7] = tested on: HeLa cells expressing HA-H-Ras^V12; experiment: High-throughput macropinocytosis assay (TMR-dextran uptake, Arrayscan spot detection); assay type: cell-based, human; conditions: 30 min pre-incubation in serum-free media, then TMR-dextran 30 min; dose-response
Text: To analyze and quantify Ras-stimulated macropinocytosis, a high content screening (HCS)-compatible platform designed for rapid spot analysis was desired. One such platform is the Arrayscan HCS Reader (Cellomics) in conjunction with the Spot Detector BioApplication (Cellomics), which is designed to provide fluorescent- and image-based generic spot analysis for multiple biological applications. As a model cell-based system, a HeLa Tet-Off (HTO) cell line (Clontech) stably transfected with a tetracycline-repressible transgene encoding an oncogenic form of hemagglutinin (HA)-tagged H-Ras (H-Ras^V12) was used. In brief, 2000 cells per well were plated in 384-well plate format in a total volume of 50 μL. To induce expression of H-Ras^V12, cells were plated in media lacking tetracycline, while control cells were plated in 50 ng/mL tetracycline. […] Macropinosomes were analyzed on a cell-to-cell basis using multichannel analysis on the Arrayscan HCS Reader (FIG. 21A). […] A circular spot identification target region (or mask) was then applied for each object on Channel 2, and spots were detected based on their fluorescent intensity, size, and shape. […] To quantify this, the output feature selected for Channel 2 was Spot Count Per Object, which is effectively a measure of total number amount of fluorescent extracellular fluid internalized per cell in a given incubation time. […]

[8] = tested on: NIH 3T3 [K-Ras^G12V] cells; experiment: Intracellular glutamate and α-ketoglutarate levels after albumin supplementation; assay type: cell-based, murine; conditions: complete medium + 2% albumin, 24 hours
Experimental: Glutamine is a major nutrient for many proliferating cells and is rapidly metabolized to glutamate, then α-ketoglutarate to enter central carbon metabolism. To test whether the favorable effects of albumin supplementation on cell growth were related to glutamine metabolism, the intracellular concentrations of glutamate and α-ketoglutarate in cells grown either in the absence or presence of albumin was measured. NIH 3T3 [K-Ras^G12V] cells were cultured for 24 hours in complete media (CM) supplemented to physiological concentrations of albumin (2 g/100 mL, 2%). As a control, NIH 3T3 [K-Ras^G12V] cells were also cultured in CM alone, which contains minimal levels of albumin (˜0.2%). Cells were lysed and metabolite levels were determined from deproteinized cell lysates. The addition of albumin to the media led to significant increases in intracellular concentrations of both glutamate and α-ketoglutarate (FIG. 20A).

T24 cells [9] = experiment: FITC-BSA internalization; assay type: cell-based
Experimental: as §1

[10] = cited from earlier work
[11] = tested on: K-Ras^V12-transformed NIH3T3 cells; experiment: High-throughput macropinocytosis assay, amended protocol; assay type: cell-based, murine; conditions: high-throughput quantification
Text: To explore the flexibility of the high-throughput compatible macropinocytosis assay, the HeLa-based Spot Detector BioApplication parameters were amended to quantify macropinocytosis in K-Ras^V12-expressing NIH3T3 cells. To do this, object identification parameters were altered to accommodate larger nuclei and the spot identification target region was adjusted accordingly. Untransformed NIH3T3 cells display low levels of macropinocytosis, compared to K-Ras^V12-transformed cells. Using this amended protocol, it was possible to quantify fluid-phase uptake in these cells and determine that K-Ras^V12-expressing cells have a 3-4 fold increase in macropinocytosis (FIGS. 2A-2B). To examine the effects of macropinocytosis inhibitors, K-Ras^V12-transformed NIH3T3 cells were treated with increasing concentrations of LY294002 or EIPA.

macropinocytosis = conditions: cited from earlier work

Row | Structure (SMILES) | effect on proliferation [1] | FITC-BSA internalization [2] | FITC-BSA internalization (MIA-Paca-2 cells [3]) | TMR-dextran labeling (macropinocytosis) (MIA-Paca-2 cells [4]) | survival enhancement by extracellular albumin [5] | TMR-dextran labeling (macropinocytosis) (T24 cells [6]) | concentration at which maximal inhibition of macropinocytosis occurs [7] [µM] | albumin-dependent increase in intracellular α-ketoglutarate ([8]; 25 mM EIPA) | albumin-dependent increase in intracellular glutamate ([8]; EIPA) | FITC-BSA internalization (T24 cells [9]) | solubility in cell culture media [10] | effect on macropinocytosis with increasing concentrations [11] | concentrations at which it exerts its effects on macropinocytosis (macropinocytosis) [µM]
1 | CCN(c1nc(N)c(C(=O)N=C(N)N)nc1Cl)C(C)C [EIPA, 5-N-ethyl-N-isoproamiloride] | anti-proliferative response | inhibited | inhibited | inhibited | suppressed | inhibited | 100 | blocked | blocked | inhibited | soluble in cell culture media | dose-response relationship | 50 to 100
2 | O=c1cc(N2CCOCC2)oc2c(-c3ccccc3)cccc12 [LY294002, 2-(4-morpholinyl)-8-phenyl-4H-1-benzopyran-4] | – | – | – | – | – | – | 100 | – | – | – | – | – | –
3 | N=C(N)NC(=O)c1nc(Cl)c(N)nc1N [amiloride] | – | – | – | – | – | – | – | – | – | – | – | – | 1000 to 5000

From patent US11209420B2, “Cancer diagnostics, therapeutics, and drug discovery associated with macropinocytosis” (New York University, priority 2011, dated 2021)
